# In patent US20220202811A1, “TREATMENT FOR RETINOIC ACID RECEPTOR-RELATED ORPHAN RECEPTOR Ɣ (RORƔ)-DEPENDENT CANCERS” (The Regents of the University of California, priority 2019, published 2022):
# How the values were obtained:
# K562 cells = test: k562 colony assay in methylcellulose; assay type: cell-based, human
# Description: K562 is an aggressive human leukemia cell line generated from blast crisis chronic myeloid leukemia. […] Cells were allowed to grow over the course of 8 days before the numbers of formed colonies were counted. This was used to understand the functionality of k562 cells under different conditions. Cells treated with AZD-0284 formed fewer colonies and their morphology was smaller in comparison to the vehicle-treated cells.
# [1] = tested on: primary patient-derived xenografts; test: compilation of primary patient-derived xenografts, JTE-151; assay type: in vivo, human; conditions: JTE-151 vs vehicle, compilation (FIG. 78)
# Description: Finally, the impact of JTE-151 was examined in vivo on mice bearing primary patient-derived pancreatic cancer xenografts (FIGS. 70-78). […] FIGS. 70-72 show 3 rounds of treatment in an experiment using mice bearing PDX1356 xenographs. The horizontal axis of the first panel in each of FIGS. 70-72 represents days of treatment, and the vertical axis represents tumor volume. The horizontal axis of each of the remaining panels represents the target (vehicle vs. JTE-151 mouse), and the vertical axis represents the specified measurement. JTE-151 was given at the regimen as specified in the figures. For example, in the first round (FIG. 70), JTE-151 was given at 90 mg/kg body weight once per day for the first 25 days, then twice per day from day 26 though day 40.
# Two other primary patient-derived xenografts, PDX1535 (FIGS. 74 and 75) and PDX1424 (FIGS. 76 and 77), were tested using JTE-151 at 90 mg/kg once per day. […] Considering the reduced tumor mass and cell numbers, the absence of a significant change in tumor volume may be due to necrotic cells that remained for a while post drug treatment.
# pancreatic cancer cell = test: in vivo tumor growth, antagonists of Table 2; parameters: species or system mouse; conditions: extent of growth suppression relative to control
# [2] = tested on: KP^f/fC derived flank tumors; test: KP^f/fC flank tumors in immunocompetent mice; assay type: in vivo, mouse
# [3] = tested on: Msi2-reporter+ stem cells; test: live imaging of REM2-KP^f/fC tumors; assay type: in vivo, mouse
# Protocol: For imaging, mice were anesthetized by intraperitoneal injection of ketamine and xylazine (100/20 mg/kg). In order to visualize blood vessels and nuclei, mice were injected retro-orbitally with AlexaFluor 647 anti-mouse CD144 (VE-cadherin) antibody and Hoechst 33342 immediately following anesthesia induction. After 25 minutes, pancreatic tumors were removed and placed in HBSS containing 5% FBS and 2 mM EDTA. 80-150 μm images in 1024×1024 format were acquired with an HCX APO L20× objective on an upright Leica SP5 confocal system using Leica LAS AF 1.8.2 software. GFP cluster sizes were measure using ImageJ 1.51s software. 2 mice per treatment group were analyzed in this study; 6-10 frames were analyzed per mouse.
# human PDAC cells = test: human PDAC (FG) flank tumors in immunocompromised mice; assay type: in vivo; conditions: compared to vehicle-treatment
# Protocol: (§1) Subcutaneous tumor dimensions were measured with calipers 1-2× weekly.
# [4] = tested on: primary patient-derived organoids; test: primary patient-derived organoids, SR2211; assay type: cell-based, human; conditions: following SR2211 treatment
# Protocol: Primary patient organoids were established and provided by Dr. Andrew Lowy. Briefly, patient-derived xenografts were digested for 1 hour at 37° C. in RPMI containing 2.5% FBS, 5 mg/ml Collagenase II, and 1.25 mg/ml Dispase II, then passaged through a […] mesh filter. Cells were plated at a density of 1.5×10^5 cells per 50 μl Matrigel. After domes were solidified, growth medium was added as follows: RPMI containing 50% Wnt3a conditioned media, 10% R-Spondinl-conditioned media, 2.5% FBS, 50 ng/ml EGF, 5 mg/ml Insulin, 12.5 ng/ml hydrocortisone, and 14 μM Rho Kinase Inhibitor. After establishment, organoids were passaged and maintained as previously described (Boj et al., 2015). Briefly, organoids were isolated using Cell Recovery Solution (Corning 354253), then dissociated into single cell suspensions with TrypLE Express (ThermoFisher 12604) supplemented with 25 μg/ml DNase I (Roche) and 14 μM Rho Kinase Inhibitor (Y-27632, Sigma). Cells were split 1:2 into 20 μl domes plated on pre-warmed 48 well plates. Domes were incubated at 37° C. for 5 min, then covered with human complete organoid feeding media (Boj et al., 2015) without Wnt3a-conditioned media. […] Organoids were grown in the presence of vehicle or SR2211 for 7 days, then imaged and quantified, n=3 independent wells plated per dose per treatment group. […] Organoids were counted and measured using ImageJ 1.51s software.
# [5] = tested on: primary patient derived xenografts; test: primary patient derived xenografts, SR2211; conditions: human
# Protocol: as §1
# [6] = tested on: organoids derived from adenosquamous tumors; test: adenosquamous tumor organoids (Msi2-Cre^ER/LSL-Myc); assay type: cell-based, mouse
# Description: A new Msi2-Cre^ER mouse model of aggressive pancreatic cancer was created, in which Cre is driven off of the Msi2 promoter and can be conditionally triggered by tamoxifen delivery. This Msi2-Cre^ER driver can be crossed into mice bearing distinct mutations such as Ras (leading to myeloproliferative neoplasia), p53, or Myc. When the Msi2-Cre^ER driver was crossed into an LSL-MyC^T58A model developed by Dr. Robert Wechsler-Reya at SBP/Rady, La Jolla, Calif. (Mollaoglu et al., 2017) (FIG. 79), it produced multiple cancer types including small cell lung cancer, choroid plexus tumors, and early stage kidney tumors.
# [7] = tested on: primary murine PanIN derived organoids; test: PanIN derived organoids; assay type: cell-based
# Protocol: Moreover, RORγ inhibitor SR2211 can block the growth of benign pancreatic intraepithelial neoplasia (PanIN) lesions. The effect of SR2211 was tested on dissociated primary murine PanIN derived organoids.
# KP^f/fC tumors = conditions: chimeric wild type versus RORγ recipient mice
# [8] = SR2211 in combination with gemcitabine
smiles,measurement,setting,value
CC(=O)N1Cc2cc(S(C)(=O)=O)ccc2[C@@H]1C(=O)Nc1ccc(C(O)(C(F)(F)F)C(F)(F)F)cc1 [AZD-0284],number of colonies formed,"K562 cells; 1 μM, 3 μM, 5 μM, 10 μM, and 15 μM AZD-0284, 8 days",significant reduction
same,colony morphology,K562 cells; in comparison to the vehicle-treated cells,smaller
"Cc1ccc(NC(=O)C[C@H](CCC(=O)O)c2noc([C@H]3C[C@@H](CC(C)(C)C)C3)c2C2CC2)c(Cl)c1 [JTE-151, (4S)-6-[(2-chloro-4-methylphenyl)amino]-4-{4-cyclopropyl-5-[cis-3-(2,2-dimethylpropyl)cyclobutyl]isoxazol-3-yl}-6-oxohexanoic acid]",EpCam+ tumor epithelial cells,[1],significantly reduced
same,EpCam+/CD133+ tumor stem cells,[1],significantly reduced
same,cell number,[1],significantly reduced
same,tumor mass,[1],significantly reduced
OC(c1ccc(-c2ccc(CN3CCN(Cc4ccncc4)CC3)cc2)c(F)c1)(C(F)(F)F)C(F)(F)F [SR2211],in vivo tumor growth,pancreatic cancer cell,✓✓ (dose response observed; growth suppressed by less than 4-fold relative to control)
same,depletion in CD133+ cells,[2]; SR2211 alone,3 fold
same,depletion in Msi+ cells,[2]; SR2211 alone,3 fold
same,depletion of CD133+ cells,[2]; [8],11 fold
same,depletion of Msi2+ cells,[2]; [8],6 fold
same,necrosis in surrounding tissues,"[3]; mouse, in vivo",no increased necrosis
same,large stem cell clusters,[3]; within 1 week of treatment,striking depletion
same,reduction in tumor growth,human PDAC cells,~6 fold
same,reduction in total organoid volume,[4],~300 fold
same,tumor growth in vivo,[5],marked reduction
same,sensitivity of organoids,[6],sensitive
same,organoid number,[7],reduced
same,organoid volume,[7],reduced
same,"impact on tumor growth, cellularity, and stem cell content",KP^f/fC tumors,equivalent
